tested on: Bacillus amyloliquefaciens LN; format: cell-based

Row | Compound | Zone diameter of LN [mm] | sensitivity of LN strain to the antibiotic according to CLSI
1 | NCC[C@H](O)C(=O)N[C@@H]1C[C@H](N)[C@@H](O[C@H]2O[C@H](CN)[C@@H](O)[C@H](O)[C@H]2O)[C@H](O)[C@H]1O[C@H]1O[C@H](CO)[C@@H](O)[C@H](N)[C@H]1O [Amikacin] | 23.0 ± 0.8 | –
2 | CC1(C)S[C@@H]2[C@H](NC(=O)[C@H](N)c3ccccc3)C(=O)N2[C@H]1C(=O)O [Ampicillin] | 16.2 ± 1.0 | no antibiotics sensitivity and resistance
3 | Cn1nnnc1SCC1=C(C(=O)O)N2C(=O)[C@@H](NC(=O)[C@H](O)c3ccccc3)[C@H]2SC1 [Cefamandol] | 38.2 ± 7.1 | –
4 | CO[C@@]1(NC(=O)Cc2cccs2)C(=O)N2C(C(=O)O)=C(COC(N)=O)CS[C@@H]21 [Cefoxitin] | 27.6 ± 1.5 | –
5 | CC(=O)OCC1=C(C(=O)O)N2C(=O)[C@@H](NC(=O)Cc3cccs3)[C@H]2SC1 [Cephalothin] | 36.8 ± 1.7 | –
6 | O=C(N[C@H](CO)[C@H](O)c1ccc([N+](=O)[O-])cc1)C(Cl)Cl [Chloramphenicol] | 30.7 ± 5.9 | –
7 | CC[C@H]1OC(=O)[C@H](C)[C@@H](O[C@H]2C[C@@](C)(OC)[C@@H](O)[C@H](C)O2)[C@H](C)[C@@H](O[C@@H]2O[C@H](C)C[C@H](N(C)C)[C@H]2O)[C@](C)(O)C[C@@H](C)C(=O)[C@H](C)[C@@H](O)[C@]1(C)O [Erythromycin] | 24.5 ± 1.5 | –
8 | C[C@@H](O)[C@H]1C(=O)N2C(C(=O)O)=C(SCCN=CN)C[C@H]12 [Imipeneem] | 29.5 ± 0.2 | –
9 | NC[C@H]1O[C@H](O[C@H]2[C@H](O)[C@@H](O[C@H]3O[C@H](CO)[C@@H](O)[C@H](N)[C@H]3O)[C@H](N)C[C@@H]2N)[C@H](O)[C@@H](O)[C@@H]1O [Kanamycin] | 34.0 ± 0.4 | –
10 | O=C1CN(/N=C/c2ccc([N+](=O)[O-])o2)C(=O)N1 [Nitrofurantoin] | 17.3 ± 0.6 | –
11 | CCn1cc(C(=O)O)c(=O)c2cc(F)c(N3CCNCC3)cc21 [Norfloxacin] | 24.7 ± 0.8 | –
12 | Cc1onc(-c2ccccc2)c1C(=O)N[C@@H]1C(=O)N2[C@@H]1SC(C)(C)[C@@H]2C(=O)O [Oxacillin] | 14.3 ± 0.6 | –
13 | [H]/N=C(/N)N[C@H]1[C@H](O)[C@@H](O)[C@H](O[C@@H]2O[C@@H](C)[C@](O)(C=O)[C@H]2O[C@@H]2O[C@@H](CO)[C@H](O)[C@@H](O)[C@@H]2NC)[C@@H](N/C(N)=N\[H])[C@@H]1O [Streptomycin] | 14.3 ± 0.5 | no antibiotics sensitivity and resistance
14 | CN(C)[C@@H]1C(O)=C(C(N)=O)C(=O)[C@@]2(O)C(O)=C3C(=O)c4c(O)cccc4[C@@](C)(O)[C@H]3C[C@@H]12 [Tetracycline] | 15.3 ± 1.1 | –
15 | NC[C@H]1O[C@H](O[C@H]2[C@H](O)[C@@H](O[C@H]3O[C@H](CO)[C@@H](O)[C@H](N)[C@H]3O)[C@H](N)C[C@@H]2N)[C@H](N)C[C@@H]1O [Tobramycin] | 22.4 ± 1.8 | –
16 | CN[C@H](CC(C)C)C(=O)N[C@H]1C(=O)N[C@@H](CC(N)=O)C(=O)N[C@H]2C(=O)N[C@H]3C(=O)N[C@H](C(=O)N[C@H](C(=O)O)c4cc(O)cc(O)c4-c4cc3ccc4O)[C@H](O)c3ccc(c(Cl)c3)Oc3cc2cc(c3O[C@@H]2O[C@H](CO)[C@@H](O)[C@H](O)[C@H]2O[C@H]2C[C@](C)(N)[C@H](O)[C@H](C)O2)Oc2ccc(cc2Cl)[C@H]1O [Vancomycin] | 19.0 ± 0.8 | –
17 | Cefoxime | 28.7 ± 7.0 | –
18 | Gentamicin | 35.0 ± 9.6 | –
19 | Neomycin | 20.9 ± 2.3 | –
